In US10758534B2 (Vertex Pharmaceuticals Incorporated, priority 2014, dated 2020):

Target: T1, F508del (Homo sapiens, UniProt P13569, DEL508-508)
T1 construct: expressed in transfected cells
Assay: Protocol 2: FRET membrane potential optical assay (VIPR), identification of correction compounds
Type: cell-based
Settings: F508del CFTR modulator activity; compounds of Table 1; read-out: EC30
Procedure, shortened: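 Mouse NIH3T3 cells, stable F508del; cpd 16 hrs, 37° C., serum-free; pos ctrl 27° C. 16 hrs. Rinse in Krebs Ringers, dye load, then add 10 μM forskolin + 20 μM genistein with Cl^−-free (gluconate) medium; depolarization by FRET voltage dyes.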

T1 sequence (P13569 with tags, fused parts or gaps DEL508-508): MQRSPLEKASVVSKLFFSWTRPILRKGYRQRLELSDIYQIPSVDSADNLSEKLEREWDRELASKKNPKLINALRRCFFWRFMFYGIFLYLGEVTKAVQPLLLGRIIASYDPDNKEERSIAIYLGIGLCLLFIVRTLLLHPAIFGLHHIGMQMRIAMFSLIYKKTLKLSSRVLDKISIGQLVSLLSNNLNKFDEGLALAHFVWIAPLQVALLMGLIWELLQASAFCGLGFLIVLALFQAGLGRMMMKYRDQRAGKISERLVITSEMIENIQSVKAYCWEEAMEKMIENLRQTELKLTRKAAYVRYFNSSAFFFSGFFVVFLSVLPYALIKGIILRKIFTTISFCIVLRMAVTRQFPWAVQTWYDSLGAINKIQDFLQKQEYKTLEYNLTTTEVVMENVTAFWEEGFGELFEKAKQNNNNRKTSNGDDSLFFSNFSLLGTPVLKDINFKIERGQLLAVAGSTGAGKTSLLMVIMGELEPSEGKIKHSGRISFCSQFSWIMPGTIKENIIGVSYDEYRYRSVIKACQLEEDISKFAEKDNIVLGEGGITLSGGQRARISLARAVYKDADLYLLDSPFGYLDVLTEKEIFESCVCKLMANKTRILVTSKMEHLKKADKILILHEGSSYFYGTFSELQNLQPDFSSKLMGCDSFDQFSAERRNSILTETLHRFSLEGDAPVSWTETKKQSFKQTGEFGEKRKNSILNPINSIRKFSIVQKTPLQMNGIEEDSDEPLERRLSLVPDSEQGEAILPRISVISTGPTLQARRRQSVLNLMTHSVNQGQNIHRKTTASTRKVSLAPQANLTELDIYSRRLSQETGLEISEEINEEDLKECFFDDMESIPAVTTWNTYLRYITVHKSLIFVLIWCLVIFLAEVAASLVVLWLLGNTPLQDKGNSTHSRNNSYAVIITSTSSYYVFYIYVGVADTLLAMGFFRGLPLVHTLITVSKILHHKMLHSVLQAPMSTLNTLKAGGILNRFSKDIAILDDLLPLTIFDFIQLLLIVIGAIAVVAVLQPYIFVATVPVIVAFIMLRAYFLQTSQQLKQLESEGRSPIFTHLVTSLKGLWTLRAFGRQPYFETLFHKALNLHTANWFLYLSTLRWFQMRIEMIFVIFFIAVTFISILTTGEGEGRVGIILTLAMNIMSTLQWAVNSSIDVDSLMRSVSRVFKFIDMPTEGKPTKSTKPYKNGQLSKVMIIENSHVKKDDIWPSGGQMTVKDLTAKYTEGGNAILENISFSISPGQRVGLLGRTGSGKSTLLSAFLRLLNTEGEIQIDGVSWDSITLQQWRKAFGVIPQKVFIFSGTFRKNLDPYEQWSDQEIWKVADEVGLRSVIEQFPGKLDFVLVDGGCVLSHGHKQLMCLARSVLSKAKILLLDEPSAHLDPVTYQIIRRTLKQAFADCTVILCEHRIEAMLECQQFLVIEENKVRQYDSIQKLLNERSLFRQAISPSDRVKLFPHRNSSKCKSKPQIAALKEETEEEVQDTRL

| Compound | EC30 |
| --- | --- |
| CCCOc1cccc(S(=O)(=O)NC(=O)c2cccnc2N2CC(C)CC2(C)C)n1 (stereo not drawn) [Compound 2528, N-[(6-propoxy-2-pyridyl)sulfonyl]-2-(2,2,4-trimethylpyrrolidin-1-yl)pyridine-3-carboxamide] | < 3 µM |
| CCCCOCCCNc1cccc(S(=O)(=O)NC(=O)c2cccnc2N2CC(C)CC2(C)C)n1 (stereo not drawn) [Compound 2529, N—[[6-(3-butoxypropylamino)-2-pyridyl]sulfonyl]-2-(2,2,4-trimethylpyrrolidin-1-yl)pyridine-3-carboxamide] | < 3 µM |
| CCN(CC)c1ccc(Nc2cccc(S(=O)(=O)NC(=O)c3cccnc3N3CC(C)CC3(C)C)n2)cc1 (stereo not drawn) [Compound 2531, N—[[6-[4-(diethylamino)anilino]-2-pyridyl]sulfonyl]-2-(2,2,4-trimethylpyrrolidin-1-yl)pyridine-3-carboxamide] | < 3 µM |
| CC(C)COc1cc(F)cc(-c2ccc(C(=O)NS(=O)(=O)N3C[C@@H](O)[C@H](O)C3)c(N3C[C@@H](C)CC3(C)C)n2)c1 [Compound 2534, N-[(3R,4R)-3,4-dihydroxypyrrolidin-1-yl]sulfonyl-6-(3-fluoro-5-isobutoxy-phenyl)-2-[(4S)-2,2,4-trimethylpyrrolidin-1-yl]pyridine-3-carboxamide] | < 3 µM |
| CNc1cccc(S(=O)(=O)NC(=O)c2cccnc2N2CC(C)CC2(C)C)n1 (stereo not drawn) [Compound 2535, N—[[6-(methylamino)-2-pyridyl]sulfonyl]-2-(2,2,4-trimethylpyrrolidin-1-yl)pyridine-3-carboxamide] | 3 to 10 µM |
| CC1CN(c2ncccc2C(=O)NS(=O)(=O)c2cccc(N3CCC[C@@H]3C(=O)OC(C)(C)C)n2)C(C)(C)C1 (stereo partly drawn) [Compound 2536, tert-butyl (2R)-1-[6-[[2-(2,2,4-trimethylpyrrolidin-1-yl)pyridine-3-carbonyl]sulfamoyl]-2-pyridyl]pyrrolidine-2-carboxylate] | < 3 µM |
| CC1CN(c2ncccc2C(=O)NS(=O)(=O)c2cccc(N3CC[C@@H](NC(=O)OC(C)(C)C)C3)n2)C(C)(C)C1 (stereo partly drawn) [Compound 2537, tert-butyl N-[(3R)-1-[6-[[2-(2,2,4-trimethylpyrrolidin-1-yl)pyridine-3-carbonyl]sulfamoyl]-2-pyridyl]pyrrolidin-3-yl]carbamate] | 3 to 10 µM |
| CC(C)COc1cc(F)cc(-c2ccc(C(=O)NS(=O)(=O)c3cccc(N)n3)c(N3CC(C(C)(C)C)CC3(C)C)n2)c1 (stereo not drawn) [Compound 2538, N-[(6-amino-2-pyridyl)sulfonyl]-2-(4-tert-butyl-2,2-dimethyl-pyrrolidin-1-yl)-6-(3-fluoro-5-isobutoxy-phenyl)pyridine-3-carboxamide] | < 3 µM |
| C#CCCC(=O)Nc1cccc(S(=O)(=O)NC(=O)c2ccc(-c3ccc(Cl)c(OCCC)c3)nc2N2[C@H](C)CC[C@@H]2C)n1 [Compound 2540, 6-(4-chloro-3-propoxy-phenyl)-2-[(2R,5S)-2,5-dimethylpyrrolidin-1-yl]-N-[[6-(pent-4-ynoylamino)-2-pyridyl]sulfonyl]pyridine-3-carboxamide] | < 3 µM |
| Nc1cccc(S(=O)(=O)NC(=O)c2cccnc2Oc2ccccc2-c2nc3ccccc3o2)n1 [Compound 2544, N-[(6-amino-2-pyridyl)sulfonyl]-2-[2-(1,3-benzoxazol-2-yl)phenoxy]pyridine-3-carboxamide] | > 10 µM |
| COc1cc(Cl)cc(-c2cnc(N3CC(C)CC3(C)C)c(C(=O)NS(=O)(=O)c3cccc(N)n3)c2)c1 (stereo not drawn) [Compound 2545, N-[(6-amino-2-pyridyl)sulfonyl]-5-(3-chloro-5-methoxy-phenyl)-2-(2,2,4-trimethylpyrrolidin-1-yl)pyridine-3-carboxamide] | < 3 µM |
| CC1CN(c2ncccc2C(=O)NS(=O)(=O)c2cccc(Nc3ccc(-c4cnco4)cc3)n2)C(C)(C)C1 (stereo not drawn) [Compound 2546, N—[[6-(4-oxazol-5-ylanilino)-2-pyridyl]sulfonyl]-2-(2,2,4-trimethylpyrrolidin-1-yl)pyridine-3-carboxamide] | < 3 µM |
| CC1CN(c2ncc(-c3ccc(C(C)(C)O)cc3)cc2C(=O)NS(=O)(=O)c2cccc(N)n2)C(C)(C)C1 (stereo not drawn) [Compound 2547, N-[(6-amino-2-pyridyl)sulfonyl]-5-[4-(1-hydroxy-1-methyl-ethyl)phenyl]-2-(2,2,4-trimethylpyrrolidin-1-yl)pyridine-3-carboxamide] | < 3 µM |
| Cc1ccc2nc(N3C[C@@H](C)CC3(C)C)c(C(=O)NS(=O)(=O)c3cccc(N)n3)cc2c1 [Compound 2548, N-[(6-amino-2-pyridyl)sulfonyl]-6-methyl-2-[(4S)-2,2,4-trimethylpyrrolidin-1-yl]quinoline-3-carboxamide] | < 3 µM |
| Cc1ccn(CCCNc2cccc(S(=O)(=O)NC(=O)c3cccnc3N3CC(C)CC3(C)C)n2)n1 (stereo not drawn) [Compound 2550, N—[[6-[3-(3-methylpyrazol-1-yl)propylamino]-2-pyridyl]sulfonyl]-2-(2,2,4-trimethylpyrrolidin-1-yl)pyridine-3-carboxamide] | 3 to 10 µM |
| COc1cccc(Oc2cccc(S(=O)(=O)NC(=O)c3cccnc3N3CC(C)CC3(C)C)n2)c1 (stereo not drawn) [Compound 2551, N—[[6-(3-methoxyphenoxy)-2-pyridyl]sulfonyl]-2-(2,2,4-trimethylpyrrolidin-1-yl)pyridine-3-carboxamide] | < 3 µM |
| C[C@@H]1CN(c2nc(-n3ccc(OCC(C)(C)C)n3)ccc2C(=O)NS(=O)(=O)C2CC2)C(C)(C)C1 [Compound 2554, N-cyclopropylsulfonyl-6-[3-(2,2-dimethylpropoxy)pyrazol-1-yl]-2-[(4S)-2,2,4-trimethylpyrrolidin-1-yl]pyridine-3-carboxamide] | < 3 µM |
| Cc1cc(-c2ccc(C(=O)NS(=O)(=O)c3ccc[nH]c3=O)c(N3C[C@@H](C)CC3(C)C)n2)cc(C)c1O [Compound 2556, 6-(4-hydroxy-3,5-dimethyl-phenyl)-N-[(2-oxo-1H-pyridin-3-yl)sulfonyl]-2-[(4S)-2,2,4-trimethylpyrrolidin-1-yl]pyridine-3-carboxamide] | 3 to 10 µM |
| Cc1cc(OCC(C)C)cc(-c2cnc(N3CC(C)CC3(C)C)c(C(=O)NS(=O)(=O)c3cccc(N)n3)c2)c1 (stereo not drawn) [Compound 2558, N-[(6-amino-2-pyridyl)sulfonyl]-5-(3-isobutoxy-5-methyl-phenyl)-2-(2,2,4-trimethylpyrrolidin-1-yl)pyridine-3-carboxamide] | < 3 µM |

Continued, values first:

| EC30 | Compound |
| --- | --- |
| < 3 µM | COc1ccc(C)cc1-c1ccc(C(=O)NS(=O)(=O)c2ccc[nH]c2=O)c(N2C[C@@H](C)CC2(C)C)n1 [Compound 2530, 6-(2-methoxy-5-methyl-phenyl)-N-[(2-oxo-1H-pyridin-3-yl)sulfonyl]-2-[(4S)-2,2,4-trimethylpyrrolidin-1-yl]pyridine-3-carboxamide] |
| < 3 µM | CC1CN(c2ncccc2C(=O)NS(=O)(=O)c2cccc(OCc3ccc(F)c(F)c3)n2)C(C)(C)C1 (stereo not drawn) [Compound 2533, N—[[6-[(3,4-difluorophenyl)methoxy]-2-pyridyl]sulfonyl]-2-(2,2,4-trimethylpyrrolidin-1-yl)pyridine-3-carboxamide] |
| < 3 µM | C[C@@H]1CN(c2nc(-c3ccccc3OC(F)(F)F)ccc2C(=O)NS(=O)(=O)c2cccnc2N)C(C)(C)C1 [Compound 2539, N-[(2-amino-3-pyridyl)sulfonyl]-6-[12-(trifluoromethoxy)phenyl]-2-[(4S)-2,2,4-trimethylpyrrolidin-1-yl]pyridine-3-carboxamide] |
| < 3 µM | CC(C)Oc1ccccc1-c1ccc(C(=O)NS(=O)(=O)c2ccc[nH]c2=O)c(N2C[C@@H](C)CC2(C)C)n1 [Compound 2541, 6-(2-isopropoxyphenyl)-N-[(2-oxo-1H-pyridin-3-yl)sulfonyl]-2-[(4S)-2,2,4-trimethylpyrrolidin-1-yl]pyridine-3-carboxamide] |
| < 3 µM | C[C@@H]1CN(c2nc(-c3ccccc3F)ccc2C(=O)NS(=O)(=O)c2ccc[nH]c2=O)C(C)(C)C1 [Compound 2542, 6-(2-fluorophenyl)-N-[(2-oxo-1H-pyridin-3-yl)sulfonyl]-2-[(4S)-2,2,4-trimethylpyrrolidin-1-yl]pyridine-3-carboxamide] |
| < 3 µM | Cc1cc(-c2ccc(C(=O)NS(=O)(=O)c3cccc(N)n3)c(N3C[C@@H](C)CC3(C)C)n2)ccc1OC(F)F [Compound 2543, N-[(6-amino-2-pyridyl)sulfonyl]-6-[4-(difluoromethoxy)-3-methyl-phenyl]-2-[(4S)-2,2,4-trimethylpyrrolidin-1-yl]pyridine-3-carboxamide] |
| < 3 µM | CC(C)Oc1cccc(-c2ccc(C(=O)NS(=O)(=O)c3ccc[nH]c3=O)c(N3C[C@@H](C)CC3(C)C)n2)c1 [Compound 2549, 6-(3-isopropoxyphenyl)-N-[(2-oxo-1H-pyridin-3-yl)sulfonyl]-2-[(4S)-2,2,4-trimethylpyrrolidin-1-yl]pyridine-3-carboxamide] |
| < 3 µM | C[C@@H]1CN(c2nc(CCC3CC3)ccc2C(=O)NS(=O)(=O)c2cccnc2N)C(C)(C)C1 [Compound 2553, N-[(2-amino-3-pyridyl)sulfonyl]-6-(2-cyclopropylethyl)-2-[(4S)-2,2,4-trimethylpyrrolidin-1-yl]pyridine-3-carboxamide] |
| < 3 µM | C[C@@H]1CN(c2nc(-c3ccccc3O)ccc2C(=O)NS(=O)(=O)c2cccc(N)n2)C(C)(C)C1 [Compound 2555, N-[(6-amino-2-pyridyl)sulfonyl]-6-(2-hydroxyphenyl)-2-[(4S)-2,2,4-trimethylpyrrolidin-1-yl]pyridine-3-carboxamide] |
| < 3 µM | CCOc1ccccc1-c1cnc(N2CC(C)CC2(C)C)c(C(=O)NS(=O)(=O)c2cccc(N)n2)c1 (stereo not drawn) [Compound 2557, N-[(6-amino-2-pyridyl)sulfonyl]-5-(2-ethoxyphenyl)-2-(2,2,4-trimethylpyrrolidin-1-yl)pyridine-3-carboxamide] |
| < 3 µM | C[C@@H]1CN(c2nc(-c3ccc(F)c(F)c3)ccc2C(=O)NS(=O)(=O)c2cccc(N)n2)C(C)(C)C1 [Compound 2559, N-[(6-amino-2-pyridyl)sulfonyl]-6-(3,4-difluorophenyl)-2-[(4S)-2,2,4-trimethylpyrrolidin-1-yl]pyridine-3-carboxamide] |
